Experimental data reported in US20080305186A1, “Method and Composition for the Treatment of Cardiac Hypertrophy” (BOARD OF REGENTS, THE UNIVERSITY OF TEXAS SYSTEM, priority 2007, published 2008).

Test system: cardiac gene expression
Assay: Microarray analysis of cardiac gene expression (GeneChip Mouse Genome 430 2.0)
Format: in vivo, mice
Procedure: Microarray Sample Preparation and Analysis. Animal hearts were rapidly removed, and the atria and right ventricles were cut and immediately plunged into TRIzol Reagent (Life Technologies). Total RNA was isolated following the manufacturer's instructions, purified by phenol-chloroform extraction and then ethanol precipitation, and 20 μg further processed for microarray analysis. Briefly, cDNA synthesis, in vitro transcription, and labeling and fragmentation to produce the oligonucleotide probes were performed as instructed by the GeneChip manufacturer (Affymetrix). The probes were first hybridized to a test array (Affymetrix) and then to the GeneChip Mouse Genome 430 2.0 Array, using the GeneChip Hybridization Oven 640. The chips were washed in a GeneChip Fluidics Station 450 (Affymetrix), and the results were visualized with a GeneChip G7 scanner (Affymetrix). RMA normalization, pairwise comparisons, Student's t test and Benjamini and Hochberg correction were subsequently performed using GeneSifter (VizX Labs, Seattle, Wash.) and Spotfire DecisionSite 8.3 (Spotfire, Inc., Somerville, Mass.).
Effects on Gene Expression Profile. […] One mouse heart was used for each array, and was performed in triplicate, generating a total of 12 arrays. GeneSifter was used to perform RMA normalization, pairwise comparisons of averaged signal intensity values, and Student's t-test with Benjamini and Hochberg correction, and Spotfire was used to perform pairwise comparisons. […] Additionally, genes that were altered between any two N or cardiac hypertrophy samples were removed, as these alterations most likely represented normal variations between mice.

[1] = mouse heart, vs isoproterenol only (CH), CH vs normal −1.7
[2] = mouse heart, vs isoproterenol only (CH), CH vs normal −1.8
[3] = mouse heart, vs isoproterenol only (CH), CH vs normal −1.9
[4] = mouse heart, vs isoproterenol only (CH), CH vs normal −2.0
[5] = mouse heart, vs isoproterenol only (CH), CH vs normal −2.1
[6] = mouse heart, vs isoproterenol only (CH), CH vs normal −2.4
[7] = mouse heart, vs isoproterenol only (CH), CH vs normal −2.5
[8] = mouse heart, vs isoproterenol only (CH), CH vs normal −2.6
[9] = mouse heart, vs isoproterenol only (CH), CH vs normal −2.7
[10] = mouse heart, vs isoproterenol only (CH), CH vs normal −2.8
[11] = mouse heart, vs isoproterenol only (CH), CH vs normal −2.9
[12] = mouse heart, vs isoproterenol only (CH), CH vs normal −3.0
[13] = mouse heart, vs isoproterenol only (CH), CH vs normal −3.2
[14] = mouse heart, vs isoproterenol only (CH), CH vs normal −3.3
[15] = mouse heart, vs isoproterenol only (CH), CH vs normal −3.9

Compound: C[C@H]1c2cccc(O)c2C(=O)C2=C(O)[C@]3(O)C(=O)C(C(N)=O)=C(O)[C@@H](N(C)C)[C@@H]3[C@@H](O)[C@@H]21 [doxycycline]
- FC EphrinB3 (Efnb3), BQ175608 [1]: 1.6 fold
- FC Nuclear factor IB (Nfib), BB092799 [1]: 4.0 fold
- FC Preimplantation protein 4 (Prei4), BB550273 [1]: 3.6 fold
- FC Triple futional domain (PTPRF interacting) (Trio), BB794936 [1]: 3.0 fold
- FC cDNA, AK020162 [1]: 1.7 fold
- FC ATPase, Na+/K+ transporting, alpha 1 polypeptide (Atp1a1), BC025618 (mouse heart, vs isoproterenol only (CH), CH vs normal −1.7, first BC025618 line): 2.4 fold
- FC EST, BB126796 [2]: 6.5 fold
- FC EST, BB451134 [2]: 7.5 fold
- FC Metastasis suppressor 1 (Mtss1), BB326749 [2]: 2.0 fold
- FC Tetratricopeptide repeat domain (Ttc3), BB833716 [2]: 3.0 fold
- FC EST, BM941198 [3]: 3.2 fold
- FC Jumonji, AT rich interactive domain 1A (Rbp2 like) (Jarid1a), BB376407 [3]: 2.6 fold
- FC cDNA, BB006809 [3]: 2.1 fold
- FC Guanine nucleotide binding protein, alpha 12 (Gna12), NM_010302 [4]: 3.0 fold
- FC Zi finger and BTB domain containing 20 (Zbtb20), BB175650 [4]: 2.3 fold
- FC cDNA, BC002200 [4]: 4.8 fold
- FC ATPase, Na+/K+ transporting, alpha 1 polypeptide (Atp1a1), BC025618 (mouse heart, vs isoproterenol only (CH), CH vs normal −2.0, second BC025618 line): 2.7 fold
- FC Adenylate kinase 4 (Ak4), NM_009647 [5]: 2.2 fold
- FC Beta-tubulin gene M-beta-2 (Tubb2a), M28739 [5]: 1.7 fold
- FC C1q and tumor necrosis factor related protein 4 (C1qtnf4), NM_026161 [5]: 1.5 fold
- FC Cold inducible RNA binding protein (Cirbp), NM_007705 [5]: 1.7 fold
- FC Coronin, actin binding protein 1C (Coro1c), NM_011779 [5]: 2.1 fold
- FC Adrenergic receptor, alpha 1b (Adra1b), NM_007416 (mouse heart, vs isoproterenol only (CH), CH vs normal −2.3): 1.8 fold
- FC CXXC finger 5 (Cxxc5), AK015150 [6]: 2.1 fold
- FC DNA segment, Chr 9, ERATO Doi 256, expressed, BG066667 [6]: 3.3 fold
- FC Insulin degrading enzyme (Ide), AK014703 [6]: 2.1 fold
- FC Sno, strawbeny notch homolog 1 (Sno1), BE947961 [6]: 3.0 fold
- FC cDNA, BB748887 [6]: 3.9 fold
- FC B-cell translocation gene 2, anti-proliferative (Btg2), BG965405 [7]: 2.2 fold
- FC cDNA, BC026793 [7]: 2.5 fold
- FC Cbp/p300-interacting transactivator, with Glu/Asp-rich carboxy-terminal domain, 4 (Cited4), BC025116 [8]: 2.0 fold
- FC Desmoglein 2 (Dsg2), AB072269 [8]: 3.0 fold
- FC Heat shock protein, 84 kDa 1 (Hsp90ab1), BI154147 [8]: 8.7 fold
- FC Myocyte enhaer factor 2C (Mef2c), AI595932 [8]: 4.5 fold
- FC Restin-like 2 (Rsnl2), AK018895 [8]: 3.8 fold
- FC Jumonji domain containing 3 (Jmjd3), AW763746 [9]: 5.0 fold
- FC cDNA (similar to integrin beta 1 binding protein 3), AK009897 [9]: 4.0 fold
- FC ADP-ribosylation factor 2 (Arf2), AV023312 [10]: 2.5 fold
- FC Karyopherin (importin) beta 1 (Kpnb1), AW544889 [10]: 3.6 fold
- FC PPAR gamma coactivator-1beta protein (Ppargc1b), NM_133249 [11]: 4.4 fold
- FC SET and MYND domain containing 1 (Smyd1), NM_009762 [11]: 2.7 fold
- FC cDNA, AK013448 [11]: 2.6 fold
- FC Dual specificity phosphatase 8 (Dusp8), NM_008748 [12]: 2.8 fold
- FC GATA binding protein 4 (Gata4), NM_008092 [12]: 2.7 fold
- FC ATP synthase, H+ transporting, mitochondrial F1 complex, alpha subunit, isoform 1 (Atp5a1), C78762 (mouse heart, vs isoproterenol only (CH), CH vs normal −3.1): 1.7 fold
- FC Actin, beta, cytoplasmic (Actb), AW537707 [13]: 4.9 fold
- FC Methionine sulfoxide reductase B3 (Msrb3), BB277041 [13]: 7.2 fold
- FC Cyclin D1 (Ccnd1), BB538325 [14]: 2.7 fold
- FC Thymoma viral proto-oogene 1 (Akt1), M94335 [14]: 2.1 fold
- FC cDNA, BB283973 [14]: 4.1 fold
- FC cDNA, BB534971 (mouse heart, vs isoproterenol only (CH), CH vs normal −3.5): 2.9 fold
- FC cDNA, BB026304 (mouse heart, vs isoproterenol only (CH), CH vs normal −3.8): 4.1 fold
- FC Connexin 43 (alpha-1 gap jution) (Gja1), M63801 [15]: 3.6 fold
- FC Kinesin-like protein (Kif1b), D17577 [15]: 4.8 fold
- FC Kv channel-interacting protein 2a (Kcnip2), AF439339 (mouse heart, vs isoproterenol only (CH), CH vs normal −4.4): 3.7 fold
- FC Potassium voltage-gated channel, Isk-related subfamily, member 1 (Kcne1), NM_008424 (mouse heart, vs isoproterenol only (CH), CH vs normal −4.6): 1.5 fold
- FC Tumor rejection antigen gp96 (Tra1); heat shock protein 90 kDa beta (Grp94), member 1 (Hsp90b1), BE995678 (mouse heart, vs isoproterenol only (CH), CH vs normal −9.4): 8.0 fold
- FC Cadherin 13 (Cdh13), AK016527 (mouse heart, vs isoproterenol only (CH), CH vs normal −10.0): 9.8 fold
- FC cDNA (D site albumin promoter binding protein, Dbp), BB550183 (mouse heart, vs isoproterenol only (CH), CH vs normal −11.5): 12.0 fold
- number of the 472 cardiac hypertrophy-specific Combo-altered genes also altered by the drug alone (statistical parameters lifted (average fold-changes irrespective of statistical measures)): 453
